Measurements published in ChEMBL document CHEMBL1122779, “Antiinflammatory agents. 3. Synthesis and pharmacological evaluation of 2-amino-3-benzoylphenylacetic acid and analogues” (J Med Chem, 1984).
Each block holds one compound with its values, some of them ahead of it.

What was measured:
Rattus norvegicus [1] = experiment: Percent change in average volume of pleural fluid at a dose 4 mg/kg of indomethacin and 5-h response is evaluated by Evans blue-carrageenan induced pleural effusion assay; assay type: functional
Rattus norvegicus [2] = experiment: Percent change in average volume of pleural fluid at a dose of 4.0 mg/kg and 5-h response by Evans blue-carrageenan induced pleural effusion assay.; assay type: functional
Cyclooxygenase = molecular target: T1, Cyclooxygenase (Bos taurus, UniProt O62664+O62698)
T1 sequence (O62664 whole entry): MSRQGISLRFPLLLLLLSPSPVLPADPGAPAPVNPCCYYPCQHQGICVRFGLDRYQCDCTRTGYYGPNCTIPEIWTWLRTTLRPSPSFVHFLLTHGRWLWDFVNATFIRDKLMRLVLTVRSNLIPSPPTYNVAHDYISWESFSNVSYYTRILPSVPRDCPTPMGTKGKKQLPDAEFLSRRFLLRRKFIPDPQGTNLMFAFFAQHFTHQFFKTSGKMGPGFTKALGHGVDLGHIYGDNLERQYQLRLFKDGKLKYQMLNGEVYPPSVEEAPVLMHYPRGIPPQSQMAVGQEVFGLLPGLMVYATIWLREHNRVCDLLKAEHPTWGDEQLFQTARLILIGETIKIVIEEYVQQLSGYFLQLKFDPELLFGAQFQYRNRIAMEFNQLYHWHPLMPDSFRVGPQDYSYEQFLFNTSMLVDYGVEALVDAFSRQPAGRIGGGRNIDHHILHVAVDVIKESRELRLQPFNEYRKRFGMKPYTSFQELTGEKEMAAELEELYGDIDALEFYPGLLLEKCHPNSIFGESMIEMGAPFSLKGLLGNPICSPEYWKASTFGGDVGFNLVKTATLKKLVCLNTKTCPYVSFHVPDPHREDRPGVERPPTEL
T1 sequence (O62698 whole entry): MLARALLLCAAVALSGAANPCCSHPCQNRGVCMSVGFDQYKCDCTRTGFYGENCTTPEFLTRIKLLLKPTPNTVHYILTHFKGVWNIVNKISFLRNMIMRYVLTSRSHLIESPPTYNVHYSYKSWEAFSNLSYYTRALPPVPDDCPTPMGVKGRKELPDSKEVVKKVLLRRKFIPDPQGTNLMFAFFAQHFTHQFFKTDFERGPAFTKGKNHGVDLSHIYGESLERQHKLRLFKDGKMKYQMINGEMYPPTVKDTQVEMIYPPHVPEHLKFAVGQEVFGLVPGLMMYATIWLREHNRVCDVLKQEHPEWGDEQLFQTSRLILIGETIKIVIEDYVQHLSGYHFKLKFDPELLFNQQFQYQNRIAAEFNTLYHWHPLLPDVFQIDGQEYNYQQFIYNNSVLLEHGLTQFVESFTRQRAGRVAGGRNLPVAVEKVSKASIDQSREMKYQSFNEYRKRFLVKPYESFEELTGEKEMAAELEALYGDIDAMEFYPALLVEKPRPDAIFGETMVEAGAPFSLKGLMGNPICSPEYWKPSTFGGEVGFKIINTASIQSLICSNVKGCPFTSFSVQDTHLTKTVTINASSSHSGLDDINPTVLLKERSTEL
Description: Inhibition of prostaglandin G/H synthase obtained from bovine seminal vesicles.

Rattus norvegicus [3] = experiment: Percent change in average volume of pleural fluid at a dose of 100 mg/kg and 5-h response by Evans blue-carrageenan induced pleural effusion assay.; assay type: functional
Rattus norvegicus [4] = species on record: Rattus norvegicus; experiment: Evaluated for chronic potency in adjuvant arthritis assay; assay type: functional
Rattus norvegicus [5] = experiment: Acute gastric toxicity (single oral dose) in male fasted rats; assay type: organism-based, Stomach; conditions: in vivo
Mus musculus [6] = experiment: Oral analgesic activity was determined in mice by the acetylcholine-induced abdominal constriction assay upon ip administration of acetylcholine bromide 20 min following oral administration; assay type: functional; conditions: Abdomen
Mus musculus [7] = experiment: Oral analgesic activity was determined in mice by the acetylcholine-induced abdominal constriction assay upon ip administration of acetylcholine bromide 5 hours following oral administration; assay type: functional; conditions: Abdomen
Rattus norvegicus [8] = species on record: Rattus norvegicus; experiment: Evaluated for acute potency in pleural effusion assay; assay type: functional
Rattus norvegicus [9] = experiment: Evaluated for chronic intestinal toxicity (multiple oral dose) in rats; assay type: organism-based; conditions: in vivo

IC50 (Cyclooxygenase): 68 µM
SMILES: COc1ccc(C(=O)c2cccc(CC(=O)[O-])c2N)cc1.[Na+]
Change (Rattus norvegicus [1]): -35% | Change (Rattus norvegicus [2]): -10%

SMILES: Nc1c(CC(=O)[O-])cc(Br)cc1C(=O)c1ccc(Br)cc1.[Na+]
Change (Rattus norvegicus [1]): -33% | Change (Rattus norvegicus [3]): -34% | Potency (Rattus norvegicus [4]): 2.5 | Change (Rattus norvegicus [2]): -30% | Gastric toxicity (Rattus norvegicus [5]): 1.1 | IC50 (Cyclooxygenase): 0.8 µM | ED50 (Mus musculus [6]): > 0.32 mg/kg | ED50 (Mus musculus [7]): 0.2 mg/kg | Potency (Rattus norvegicus [8]): 4.2 | Intestinal toxicity (Rattus norvegicus [9]): 1

SMILES: Nc1c(CC(=O)[O-])cc(Cl)cc1C(=O)c1ccc(Br)cc1Cl.[Na+]
Change (Rattus norvegicus [1]): -36% | Change (Rattus norvegicus [3]): -37% | Potency (Rattus norvegicus [4]): 2.5 | Change (Rattus norvegicus [2]): -25% | Gastric toxicity (Rattus norvegicus [5]): 1.2 | IC50 (Cyclooxygenase): 0.05 µM | ED50 (Mus musculus [6]): 0.66 mg/kg | ED50 (Mus musculus [7]): 0.19 mg/kg | Potency (Rattus norvegicus [8]): 4.9 | Intestinal toxicity (Rattus norvegicus [9]): 3.3

IC50 (Cyclooxygenase): 1 µM
SMILES: Cc1ccccc1C(=O)c1cccc(CC(=O)[O-])c1N.[Na+]
Change (Rattus norvegicus [1]): -25% | Change (Rattus norvegicus [3]): -32% | Change (Rattus norvegicus [2]): -13%

SMILES: Nc1c(CC(=O)[O-])cc(F)cc1C(=O)c1ccc(Cl)cc1Cl.[Na+]
Change (Rattus norvegicus [1]): -45% | Change (Rattus norvegicus [3]): -46% | Potency (Rattus norvegicus [4]): 0.13 | Change (Rattus norvegicus [2]): -41% | Gastric toxicity (Rattus norvegicus [5]): 1 | IC50 (Cyclooxygenase): 0.1 µM | ED50 (Mus musculus [6]): 0.16 mg/kg | ED50 (Mus musculus [7]): 0.65 mg/kg | Potency (Rattus norvegicus [8]): 1.2

IC50 (Cyclooxygenase): 0.9 µM
SMILES: COc1cc(CC(=O)[O-])c(N)c(C(=O)c2ccc(Br)cc2)c1.[Na+]
Change (Rattus norvegicus [1]): -25% | Change (Rattus norvegicus [3]): -33% | Change (Rattus norvegicus [2]): -28%

IC50 (Cyclooxygenase): 30 µM
SMILES: Cc1ccc(C(=O)c2cc(C)cc(CC(=O)[O-])c2N)cc1.[Na+]
Change (Rattus norvegicus [1]): -42% | Change (Rattus norvegicus [3]): -33% | Change (Rattus norvegicus [2]): -12%

IC50 (Cyclooxygenase): 0.07 µM
SMILES: Cc1ccc(C(=O)c2cc(F)cc(CC(=O)[O-])c2N)cc1.[Na+]
Change (Rattus norvegicus [1]): -36% | Change (Rattus norvegicus [3]): -49% | Change (Rattus norvegicus [2]): -32%

IC50 (Cyclooxygenase): 37 µM
SMILES: Nc1c(CC(=O)[O-])ccc(Cl)c1C(=O)c1ccccc1.[Na+]
Change (Rattus norvegicus [1]): -35% | Change (Rattus norvegicus [3]): -45% | Change (Rattus norvegicus [2]): -4%

IC50 (Cyclooxygenase): 0.1 µM
SMILES: CSc1ccc(C(=O)c2cccc(CC(=O)[O-])c2N)cc1.[Na+]
Change (Rattus norvegicus [1]): -30% | Change (Rattus norvegicus [2]): -21%

SMILES: CSc1ccc(C(=O)c2cc(Cl)cc(CC(=O)[O-])c2N)cc1.[Na+]
Change (Rattus norvegicus [1]): -40% | Change (Rattus norvegicus [3]): -43% | Potency (Rattus norvegicus [4]): 0.1 | Change (Rattus norvegicus [2]): -43% | Gastric toxicity (Rattus norvegicus [5]): 0.9 | IC50 (Cyclooxygenase): 0.02 µM | ED50 (Mus musculus [6]): 0.1 mg/kg | ED50 (Mus musculus [7]): 1.9 mg/kg | Potency (Rattus norvegicus [8]): 1.8

IC50 (Cyclooxygenase): 0.1 µM
SMILES: Cc1ccc(C(=O)c2cccc(CC(=O)[O-])c2N)c(C)c1.[Na+]
Change (Rattus norvegicus [1]): -40% | Change (Rattus norvegicus [3]): -38% | Change (Rattus norvegicus [2]): -3%

IC50 (Cyclooxygenase): 11 µM
SMILES: Cc1cc(CC(=O)[O-])c(N)c(C(=O)c2ccccc2)c1.[Na+]
Change (Rattus norvegicus [1]): -25% | Change (Rattus norvegicus [3]): -35% | Change (Rattus norvegicus [2]): -11%

IC50 (Cyclooxygenase): > 1000 µM
SMILES: Nc1c(CC(=O)[O-])cccc1C(=O)c1cccc(Cl)c1.[Na+]
Change (Rattus norvegicus [1]): -33% | Change (Rattus norvegicus [3]): -35% | Change (Rattus norvegicus [2]): -15%

IC50 (Cyclooxygenase): 1 µM
SMILES: Cc1cc(CC(=O)[O-])c(N)c(C(=O)c2ccc(Cl)cc2Cl)c1.[Na+]
Change (Rattus norvegicus [1]): -45% | Change (Rattus norvegicus [3]): -43% | Change (Rattus norvegicus [2]): -24%

IC50 (Cyclooxygenase): 0.3 µM
SMILES: Cc1ccc(C(=O)c2cccc(CC(=O)[O-])c2N)cc1.[Na+]
Change (Rattus norvegicus [1]): -39% | Change (Rattus norvegicus [2]): -17%

IC50 (Cyclooxygenase): 30 µM
SMILES: Nc1c(CC(=O)[O-])cc(Cl)cc1C(=O)c1ccc(O)cc1.[Na+]
Change (Rattus norvegicus [1]): -40% | Change (Rattus norvegicus [3]): -21% | Change (Rattus norvegicus [2]): -3%
